Data published in article PMC5218480 (PLoS ONE, 2017).

Test system: MV-4-11 cells
Assay: Gene expression microarray analysis (Affymetrix PrimeView) and GSEA
Type: cell-based, human
Design: RFU PODN (11730768_x_at) / Fold change /veh PODN (11730768_x_at) / RFU LINC00158 (11744669_a_at) / Fold change /veh LINC00158 (11744669_a_at) / RFU DUSP10 (11751237_a_at) / Fold change /veh DUSP10 (11751237_a_at) / RFU ID3 (11757404_x_at) / Fold change /veh ID3 (11757404_x_at) / RFU PLEKHG5 (11737974_s_at) / Fold change /veh PLEKHG5 (11737974_s_at) / RFU LRRC4B (11730491_at) / Fold change /veh LRRC4B (11730491_at) / RFU GIMAP4 (11747438_a_at) / Fold change /veh GIMAP4 (11747438_a_at) / RFU KRT8 (11758183_x_at) / Fold change /veh KRT8 (11758183_x_at) / RFU CNN1 (11734310_a_at) / Fold change /veh CNN1 (11734310_a_at) / RFU VPS37D (11726825_at) / Fold change /veh VPS37D (11726825_at) / RFU C10orf10 (11716522_x_at) / Fold change /veh C10orf10 (11716522_x_at) / RFU KIR2DL2 /// KIR2DL4 /// KIR2DL5A /// KIR2DL5B /// KIR2DS1 /// KIR2DS2 /// KIR2DS3 /// KIR2DS4 /// KIR3DL3 /// KIR3DL3 /// KIR3DS1 (11738374_at) / Fold change /veh KIR2DL2 /// KIR2DL4 /// KIR2DL5A /// KIR2DL5B /// KIR2DS1 /// KIR2DS2 /// KIR2DS3 /// KIR2DS4 /// KIR3DL3 /// KIR3DL3 /// KIR3DS1 (11738374_at) / RFU C1QL1 (11718748_at) / Fold change /veh C1QL1 (11718748_at) / RFU TMPRSS4 (11747572_a_at) / Fold change /veh TMPRSS4 (11747572_a_at) / RFU HAMP (11756126_x_at) / Fold change /veh HAMP (11756126_x_at) / RFU RNFT2 (11725882_a_at) / Fold change /veh RNFT2 (11725882_a_at) / RFU NR4A2 (11747474_a_at) / Fold change /veh NR4A2 (11747474_a_at) / RFU ABCC12 (11746883_a_at) / Fold change /veh ABCC12 (11746883_a_at) / RFU TMEM136 (11760407_x_at) / Fold change /veh TMEM136 (11760407_x_at) / RFU CLDN22 /// WWC2 (11732394_at) / Fold change /veh CLDN22 /// WWC2 (11732394_at) / RFU HLA-DPB1 (11760878_x_at) / Fold change /veh HLA-DPB1 (11760878_x_at) / RFU SPINT1 (11716480_a_at) / Fold change /veh SPINT1 (11716480_a_at) / RFU GAP43 (11754022_s_at) / Fold change /veh GAP43 (11754022_s_at) / RFU A4GNT (11735810_at) / Fold change /veh A4GNT (11735810_at) / RFU PRB3 (11715151_x_at) / Fold change /veh PRB3 (11715151_x_at) / RFU TUBB4B (11761932_at) / Fold change /veh TUBB4B (11761932_at) / RFU CAPN14 (11732068_a_at) / Fold change /veh CAPN14 (11732068_a_at) / RFU TMCC2 (11721928_a_at) / Fold change /veh TMCC2 (11721928_a_at) / RFU IRGQ (11745062_a_at) / Fold change /veh IRGQ (11745062_a_at) / RFU FAM174B (11720279_a_at) / Fold change /veh FAM174B (11720279_a_at) / RFU TMPRSS4 (11748680_a_at) / Fold change /veh TMPRSS4 (11748680_a_at) / RFU FAM212B (11763350_a_at) / Fold change /veh FAM212B (11763350_a_at) / RFU PLEKHG5 (11743358_a_at) / Fold change /veh PLEKHG5 (11743358_a_at) / RFU ZSCAN30 (11745921_a_at) / Fold change /veh ZSCAN30 (11745921_a_at) / RFU CMKLR1 (11741424_a_at) / Fold change /veh CMKLR1 (11741424_a_at) / RFU LOC101060620 /// MAPK8IP1 (11723275_at) / Fold change /veh LOC101060620 /// MAPK8IP1 (11723275_at) / RFU SPTSSB (11747773_x_at) / Fold change /veh SPTSSB (11747773_x_at) / RFU PRSS12 (11739890_at) / Fold change /veh PRSS12 (11739890_at) / RFU BIN1 (11741810_x_at) / Fold change /veh BIN1 (11741810_x_at) / RFU WNT11 (11732464_a_at) / Fold change /veh WNT11 (11732464_a_at) / RFU C10orf10 (11716521_a_at) / Fold change /veh C10orf10 (11716521_a_at) / RFU C5orf56 (11738089_at) / Fold change /veh C5orf56 (11738089_at) / RFU CYB561 (11721691_x_at) / Fold change /veh CYB561 (11721691_x_at) / RFU ANKRD19P (11752326_a_at) / Fold change /veh ANKRD19P (11752326_a_at) / RFU OR2T12 /// OR2T33 /// OR2T8 (11738714_s_at) / Fold change /veh OR2T12 /// OR2T33 /// OR2T8 (11738714_s_at) / RFU VCAN (11748164_a_at) / Fold change /veh VCAN (11748164_a_at) / RFU JSRP1 (11732532_at) / Fold change /veh JSRP1 (11732532_at) / RFU KRTAP10-11 (11738290_x_at) / Fold change /veh KRTAP10-11 (11738290_x_at) / RFU MYO3A (11730013_a_at) / Fold change /veh MYO3A (11730013_a_at) / RFU EBF3 (11725865_a_at) / Fold change /veh EBF3 (11725865_a_at) / RFU CAMK2N1 (11719241_x_at) / Fold change /veh CAMK2N1 (11719241_x_at) / RFU C5orf56 (11738088_a_at) / Fold change /veh C5orf56 (11738088_a_at) / RFU OLFML3 (11715873_a_at) / Fold change /veh OLFML3 (11715873_a_at) / RFU LOC100653217 /// NTM (11731650_a_at) / Fold change /veh LOC100653217 /// NTM (11731650_a_at) / RFU MAPK11 (11762145_a_at) / Fold change /veh MAPK11 (11762145_a_at) / RFU FIZ1 (11724087_x_at) / Fold change /veh FIZ1 (11724087_x_at) / RFU OASL (11726364_x_at) / Fold change /veh OASL (11726364_x_at) / RFU SOX15 (11748057_x_at) / Fold change /veh SOX15 (11748057_x_at) / RFU CD79A (11719716_a_at) / Fold change /veh CD79A (11719716_a_at) / RFU HIST1H1D (11736915_at) / Fold change /veh HIST1H1D (11736915_at) / RFU CASKIN2 (11723855_a_at) / Fold change /veh CASKIN2 (11723855_a_at) / RFU LOC730098 (11760151_x_at) / Fold change /veh LOC730098 (11760151_x_at) / RFU OR4N2 (11742367_at) / Fold change /veh OR4N2 (11742367_at) / RFU PRRT2 (11749266_a_at) / Fold change /veh PRRT2 (11749266_a_at) / RFU SNX32 (11753110_a_at) / Fold change /veh SNX32 (11753110_a_at) / RFU CDHR5 (11726645_a_at) / Fold change /veh CDHR5 (11726645_a_at) / RFU RCAN1 (11760418_a_at) / Fold change /veh RCAN1 (11760418_a_at) / RFU FAM167A (11723789_a_at) / Fold change /veh FAM167A (11723789_a_at) / RFU FAM26E (11764081_at) / Fold change /veh FAM26E (11764081_at) / RFU ISYNA1 (11749810_s_at) / Fold change /veh ISYNA1 (11749810_s_at) / RFU ACY1 (11761880_at) / Fold change /veh ACY1 (11761880_at) / RFU 11764098_at / Fold change /veh 11764098_at / RFU SAMD14 (11745864_x_at) / Fold change /veh SAMD14 (11745864_x_at) / RFU NPB (11741838_a_at) / Fold change /veh NPB (11741838_a_at) / RFU TMPRSS6 (11731388_a_at) / Fold change /veh TMPRSS6 (11731388_a_at) / RFU KRTAP10-2 (11738614_at) / Fold change /veh KRTAP10-2 (11738614_at) / RFU ARHGAP8 /// PRR5-ARHGAP8 (11727945_x_at) / Fold change /veh ARHGAP8 /// PRR5-ARHGAP8 (11727945_x_at) / RFU KRTAP5-7 /// NADSYN1 (11734609_at) / Fold change /veh KRTAP5-7 /// NADSYN1 (11734609_at) / RFU RASL12 (11751679_a_at) / Fold change /veh RASL12 (11751679_a_at) / RFU CDKN2B (11736163_a_at) / Fold change /veh CDKN2B (11736163_a_at) / RFU PRF1 (11729649_at) / Fold change /veh PRF1 (11729649_at) / RFU, ZNF638 /// ZNF638-IT1 / Fold change vs veh, ZNF638 /// ZNF638-IT1 / RFU, PANK3 / Fold change vs veh, PANK3 / RFU, SH3YL1 / Fold change vs veh, SH3YL1 / RFU, ZEB2 / Fold change vs veh, ZEB2 / RFU, NRIP1 / Fold change vs veh, NRIP1 / RFU, PTTG1IP / Fold change vs veh, PTTG1IP / RFU, CAPN2 / Fold change vs veh, CAPN2 / RFU, MED14 / Fold change vs veh, MED14 / RFU, SNORA58 / Fold change vs veh, SNORA58 / RFU, C1orf63 / Fold change vs veh, C1orf63 / RFU, LRRFIP1 / Fold change vs veh, LRRFIP1 / RFU, NDUFAF7 / Fold change vs veh, NDUFAF7 / RFU, SLC12A2 / Fold change vs veh, SLC12A2 / RFU, IBTK / Fold change vs veh, IBTK / RFU, ESF1 / Fold change vs veh, ESF1 / Fold change vs veh, TMEM50B / RFU, TAOK1 / Fold change vs veh, TAOK1 / RFU, ACBD3 / Fold change vs veh, ACBD3 / RFU, TMA16 / Fold change vs veh, TMA16 / RFU, RWDD3 / Fold change vs veh, RWDD3 / RFU, BCAT1 / Fold change vs veh, BCAT1 / RFU, EDEM3 / Fold change vs veh, EDEM3 / RFU, TMEM33 / Fold change vs veh, TMEM33 / RFU, WDR75 / Fold change vs veh, WDR75 / RFU, AHCTF1 / Fold change vs veh, AHCTF1 / RFU, TFRC / Fold change vs veh, TFRC / RFU, ZDHHC17 / Fold change vs veh, ZDHHC17 / RFU, NOM1 / Fold change vs veh, NOM1 / RFU, ARL8B / Fold change vs veh, ARL8B / RFU, ZBTB11 / Fold change vs veh, ZBTB11 / RFU, TAMM41 / Fold change vs veh, TAMM41 / RFU, KIAA1704 /// LOC100996395 / Fold change vs veh, KIAA1704 /// LOC100996395 / RFU, ING1 / Fold change vs veh, ING1 / RFU, TRMT61B / Fold change vs veh, TRMT61B / RFU, FUBP3 / Fold change vs veh, FUBP3 / RFU, TP53 / Fold change vs veh, TP53 / RFU, TNKS2 / Fold change vs veh, TNKS2 / RFU, ZFP14 / Fold change vs veh, ZFP14 / RFU, ACTR2 / Fold change vs veh, ACTR2 / RFU, PPP3R1 / Fold change vs veh, PPP3R1 / RFU, PIK3R1 / Fold change vs veh, PIK3R1 / RFU, HNRNPA1 / Fold change vs veh, HNRNPA1 / RFU, RNF170 / Fold change vs veh, RNF170 / RFU, ZNF28 / Fold change vs veh, ZNF28 / RFU, RNGTT / Fold change vs veh, RNGTT / RFU, OGT / Fold change vs veh, OGT / RFU, BRD1 / Fold change vs veh, BRD1 / RFU, MARS / Fold change vs veh, MARS / RFU, ZNF655 / Fold change vs veh, ZNF655 / RFU, FAHD1 / Fold change vs veh, FAHD1 / RFU, BDP1 / Fold change vs veh, BDP1 / RFU, LRRCC1 / Fold change vs veh, LRRCC1 / RFU, ARID1A / Fold change vs veh, ARID1A / RFU, ZNF146 / Fold change vs veh, ZNF146 / RFU, ZNF330 / Fold change vs veh, ZNF330 / RFU, GPN3 / Fold change vs veh, GPN3 / RFU, C9orf123 / Fold change vs veh, C9orf123 / RFU, N4BP2L2 / Fold change vs veh, N4BP2L2 / RFU, ARFIP1 / Fold change vs veh, ARFIP1 / RFU, FAM179B / Fold change vs veh, FAM179B / RFU, BCL10 / Fold change vs veh, BCL10 / RFU, UHRF1BP1L / Fold change vs veh, UHRF1BP1L / RFU, BET1 / Fold change vs veh, BET1 / RFU, CNOT2 / Fold change vs veh, CNOT2 / RFU, ZNF268 / Fold change vs veh, ZNF268 / Fold change vs veh, ZNF507 / RFU, DGCR2 / Fold change vs veh, DGCR2 / RFU, WDSUB1 / Fold change vs veh, WDSUB1 / Fold change vs veh, HSP90B1 /// MIR3652 / RFU, ADSS / Fold change vs veh, ADSS / RFU, GK / Fold change vs veh, GK / RFU, ZNF148 / Fold change vs veh, ZNF148 / RFU, TAF9 / Fold change vs veh, TAF9 / RFU, SLC1A5 / Fold change vs veh, SLC1A5 / RFU, SLMO2 / Fold change vs veh, SLMO2 / RFU, ABCC4 / Fold change vs veh, ABCC4 / RFU, LOC101060439 /// RAP1B / Fold change vs veh, LOC101060439 /// RAP1B / RFU, RFX7 / Fold change vs veh, RFX7 / RFU, GTPBP10 / Fold change vs veh, GTPBP10 / RFU, CNEP1R1 / Fold change vs veh, CNEP1R1 / RFU, BIVM-ERCC5 /// ERCC5 / Fold change vs veh, BIVM-ERCC5 /// ERCC5 / RFU, ILF3 / Fold change vs veh, ILF3 / RFU 11762660_at / Fold change /veh 11762660_at / RFU VCAN (11757783_s_at) / Fold change /veh VCAN (11757783_s_at) / RFU DDX43 (11728927_at) / Fold change /veh DDX43 (11728927_at) / RFU KRT8 (11758188_x_at) / Fold change /veh KRT8 (11758188_x_at) / RFU NKD1 (11759106_at) / Fold change /veh NKD1 (11759106_at) / RFU SRD5A1 (11742802_a_at) / Fold change /veh SRD5A1 (11742802_a_at) / RFU TPSAB1 /// TPSB2 (11721975_s_at) / Fold change /veh TPSAB1 /// TPSB2 (11721975_s_at) / RFU GSTM3 (11746129_a_at) / Fold change /veh GSTM3 (11746129_a_at) / RFU IL23R (11737362_x_at) / Fold change /veh IL23R (11737362_x_at) / RFU TMEM51 (11727254_a_at) / Fold change /veh TMEM51 (11727254_a_at) / RFU PIWIL2 (11732686_x_at) / Fold change /veh PIWIL2 (11732686_x_at) / RFU ORM1 (11744905_x_at) / Fold change /veh ORM1 (11744905_x_at) / RFU CCDC152 (11743942_at) / Fold change /veh CCDC152 (11743942_at) / RFU ECM1 (11717891_a_at) / Fold change /veh ECM1 (11717891_a_at) / RFU IL23R (11748794_a_at) / Fold change /veh IL23R (11748794_a_at) / RFU TNFAIP8L3 (11732012_x_at) / Fold change /veh TNFAIP8L3 (11732012_x_at) / RFU MBOAT4 (11741988_at) / Fold change /veh MBOAT4 (11741988_at) / RFU 11764193_at / Fold change /veh 11764193_at / RFU TMEM53 (11763286_at) / Fold change /veh TMEM53 (11763286_at) / RFU MAGEB2 (11727129_at) / Fold change /veh MAGEB2 (11727129_at) / RFU TMEM200A (11744735_a_at) / Fold change /veh TMEM200A (11744735_a_at) / RFU CCDC152 (11751479_a_at) / Fold change /veh CCDC152 (11751479_a_at) / RFU FAM211A (11726209_a_at) / Fold change /veh FAM211A (11726209_a_at) / RFU RGS16 (11746705_a_at) / Fold change /veh RGS16 (11746705_a_at) / RFU VCAN (11755009_s_at) / Fold change /veh VCAN (11755009_s_at) / RFU RHOB (11743442_s_at) / Fold change /veh RHOB (11743442_s_at) / RFU RGS16 (11720943_a_at) / Fold change /veh RGS16 (11720943_a_at) / RFU RGS16 (11720944_at) / Fold change /veh RGS16 (11720944_at) / RFU, VPS4B / Fold change vs veh, VPS4B / RFU, CREB1 / Fold change vs veh, CREB1 / RFU, DNAJC13 / Fold change vs veh, DNAJC13 / RFU, GNAQ / Fold change vs veh, GNAQ / RFU, CDK5R1 / Fold change vs veh, CDK5R1 / RFU, ZRANB3 / Fold change vs veh, ZRANB3 / RFU, CUL4A / Fold change vs veh, CUL4A / RFU, CCNY / Fold change vs veh, CCNY / RFU, UFL1 / Fold change vs veh, UFL1 / RFU, COG3 / Fold change vs veh, COG3 / RFU, DIAPH2 / Fold change vs veh, DIAPH2 / RFU, SKA2 / Fold change vs veh, SKA2 / RFU, AFF3 / Fold change vs veh, AFF3 / RFU, LMF1 / Fold change vs veh, LMF1 / RFU, IPO11 / Fold change vs veh, IPO11 / RFU, DFFB / Fold change vs veh, DFFB / RFU, FOXP1 / Fold change vs veh, FOXP1 / RFU, CARD8 / Fold change vs veh, CARD8 / RFU, STRN3 / Fold change vs veh, STRN3 / RFU, ADK / Fold change vs veh, ADK / RFU, RASSF2 / Fold change vs veh, RASSF2 / RFU, WIPF1 / Fold change vs veh, WIPF1 / RFU, LARP1B / Fold change vs veh, LARP1B / RFU, RASA1 / Fold change vs veh, RASA1 / RFU, RB1 / Fold change vs veh, RB1 / RFU, PPFIA1 / Fold change vs veh, PPFIA1 / RFU, MAT2A / Fold change vs veh, MAT2A / RFU, CCT5 / Fold change vs veh, CCT5 / RFU, WDR92 / Fold change vs veh, WDR92 / RFU, CUX1 / Fold change vs veh, CUX1 / RFU, TTC7A / Fold change vs veh, TTC7A / RFU, TMEM135 / Fold change vs veh, TMEM135 / RFU, DEPTOR / Fold change vs veh, DEPTOR / RFU, CPM / Fold change vs veh, CPM / RFU, DNAJB6 / Fold change vs veh, DNAJB6 / RFU, CACNA2D3 / Fold change vs veh, CACNA2D3 / RFU, DTX4 / Fold change vs veh, DTX4 / RFU, TFCP2 / Fold change vs veh, TFCP2 / RFU, GMCL1 /// GMCL1P1 / Fold change vs veh, GMCL1 /// GMCL1P1 / RFU, AEBP2 / Fold change vs veh, AEBP2 / RFU, SNHG1 /// SNORD22 /// SNORD25 /// SNORD26 /// SNORD27 /// SNORD28 /// SNORD29 /// SNORD31 / Fold change vs veh, SNHG1 /// SNORD22 /// SNORD25 /// SNORD26 /// SNORD27 /// SNORD28 /// SNORD29 /// SNORD31 / Fold change (Aza/veh), C12orf56 (ProbeSet 11735607_a_at) / Fold change (ACY-1035/veh), C12orf56 (ProbeSet 11735607_a_at) / Fold change (Aza/veh), FGFR1OP (ProbeSet 11751329_s_at) / Fold change (ACY-1035/veh), FGFR1OP (ProbeSet 11751329_s_at) / Fold change (Aza/veh), VPS36 (ProbeSet 11739960_a_at) / Fold change (ACY-1035/veh), VPS36 (ProbeSet 11739960_a_at) / RFU SYPL1 (11715823_x_at) / Fold change /veh SYPL1 (11715823_x_at) / RFU IGFBP7 (11715501_s_at) / Fold change /veh IGFBP7 (11715501_s_at) / RFU REEP3 (11722064_at) / Fold change /veh REEP3 (11722064_at) / RFU IGLL1 (11728026_x_at) / Fold change /veh IGLL1 (11728026_x_at): dose or concentration left out as unconfirmed
Conditions: ProbeSet 11723141_at; LIST B

Structure (SMILES): Nc1ccc(-c2cccs2)cc1NC(=O)c1ccc2c(c1)cc(C1CC1)n2CCN1CCOCC1 [ACY-1035]
- RFU, ZBTB11: 113.11 RFU
